Reference: BindingDB's records for doi:10.7270/Q2KH0KWR (Burnham Center For Chemical Genomics, 2012)
pIC50: −log10 of the molar value.

Molecular target: T1, Tyrosine-protein phosphatase non-receptor type 5 (Homo sapiens, UniProt P54829)
T1 sequence (P54829 whole entry): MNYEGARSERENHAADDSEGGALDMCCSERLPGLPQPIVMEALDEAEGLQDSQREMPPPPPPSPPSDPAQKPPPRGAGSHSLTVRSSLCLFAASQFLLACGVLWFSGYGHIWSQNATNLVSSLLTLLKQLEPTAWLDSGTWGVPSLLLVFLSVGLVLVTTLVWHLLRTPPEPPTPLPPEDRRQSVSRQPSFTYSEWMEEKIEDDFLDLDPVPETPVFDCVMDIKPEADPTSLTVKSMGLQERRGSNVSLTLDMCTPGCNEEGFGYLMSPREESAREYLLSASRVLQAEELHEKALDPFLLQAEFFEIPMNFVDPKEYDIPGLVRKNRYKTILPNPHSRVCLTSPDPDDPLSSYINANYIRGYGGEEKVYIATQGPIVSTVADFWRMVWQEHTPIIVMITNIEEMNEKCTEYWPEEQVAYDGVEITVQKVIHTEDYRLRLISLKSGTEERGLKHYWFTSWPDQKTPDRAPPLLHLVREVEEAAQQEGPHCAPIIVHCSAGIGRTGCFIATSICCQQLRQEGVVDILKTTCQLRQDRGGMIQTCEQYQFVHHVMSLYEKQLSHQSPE
Experiment: STEP phosphatase inhibitor potency, dose response, orthogonal assay for STEP inhibitor project, biochemical, colorimetric absorbance (AID 624207)
Settings: not given

pIC50 | Structure (SMILES)
< 4.10 | Cc1ccc(NC(=O)CCn2c(=S)oc3ccccc32)cc1F [SMR000564947]
< 4.10 | COc1ccc(NC(=S)N(CCCN2CCC(C)CC2)Cc2cccs2)cc1Cl [MLS000729725]
< 4.10 | COc1ccc(NC(=O)c2cc(=O)c3ccccc3o2)cc1Cl
4.63 | COc1cc(Cl)cc(C=NNC(=O)c2ccc3c(c2)OCO3)c1O [N'-[(E)-(3-chloro-5-methoxy-6-oxo-1-cyclohexa-2,4-dienylidene)methyl]-1,3-benzodioxole-5-carbohydrazide]
4.47 | CCN1CCN(C(=S)c2ccc(O)cc2)CC1 [MLS000621546]
5.19 | Cc1c(CCC(=O)O)c(=O)oc2c(C)c(OCc3ccccc3Cl)ccc12 [3-[7-[(2-chlorophenyl)methoxy]-4,8-dimethyl-2-oxochromen-3-yl]propanoic acid]
< 4.10 | CC(=O)N1CCC(N(CCN2CCOCC2)C(=S)Nc2ccc(C)cc2)CC1
< 4.10 | CCCCCn1c(N)c(-c2nc3ccccc3o2)c2c([N+](=O)[O-])nn(C)c(=O)c21 [2-amino-1-amyl-3-(1,3-benzoxazol-2-yl)-6-methyl-4-nitro-pyrrolo[2,3-d]pyridazin-7-one]
< 4.10 | O=C(Nc1cccc2c(=O)[nH][nH]c(=O)c12)c1ccc([N+](=O)[O-])cc1 [MLS003171605]
< 4.10 | Cc1c(C)n(C(=O)CSc2nc3ccccc3[nH]2)c2ccccc12 [2-(1H-benzimidazol-2-ylthio)-1-(2,3-dimethyl-1-indolyl)ethanone]
< 4.10 | CC(/N=N/c1ccc(S(N)(=O)=O)cc1[N+](=O)[O-])c1cccs1 (stereo unspecified)
< 4.10 | Cc1nnc2sc(-c3ccc(NC(=O)c4ccc(-c5ccc(Cl)cc5Cl)o4)cc3)nn12 [MLS000050448]
< 4.10 | O=C(COc1ccc([CH+][N-]NC(=O)c2ccncc2)cc1)Nc1ccc([N+](=O)[O-])cc1 [N-[(E)-[4-[2-[(4-nitrophenyl)amino]-2-oxidanylidene-ethoxy]phenyl]methylideneamino]pyridine-4-carboxamide]
< 4.10 | CC(=O)c1ccc(S(=O)(=O)Nc2cccc(-n3cnnn3)c2)cc1
4.71 | O=C(N/N=C/c1ccncc1)c1cccc(S(=O)(=O)Nc2ccc(Cl)cc2)c1
< 4.10 | CCCCN(CC)Cc1ccc(CN=C(S)Nc2c(C)cc(C)cc2C)o1 [N-[(5-{[butyl(ethyl)amino]methyl}-2-furyl)methyl]-N'-mesitylthiourea]
4.43 | CCc1ccc(NC2=NC(=O)C(=Cc3ccc(OCC(=O)O)cc3)S2)cc1 [2-[4-[(Z)-[2-(4-ethylanilino)-4-oxo-5-thiazolylidene]methyl]phenoxy]acetic acid]
< 4.10 | O=C(O)Cc1cccc(O)c(=O)c1C(=O)O [MLS002703575]
4.80 | O=C(N/N=C/c1ccc(Cl)c([N+](=O)[O-])c1)c1ccc2c(c1)OCCO2 [MLS000587937]

pIC50 | Structure (SMILES)
< 4.10 | Cc1ccc(-c2nc3ncccc3o2)cc1NC(=O)CC(C)C
< 4.10 | Nc1ccc2c(O)cc(S(=O)(=O)O)cc2c1
5.30 | CSc1ccc(CN=Nc2ccc(S(=O)(=O)Nc3ccccc3C(=O)O)cc2[N+](=O)[O-])cc1 [MLS002245633]
< 4.10 | Clc1ccc(Cl)c(-c2nc(-c3ccncc3)no2)c1 [4-[5-(2,5-dichlorophenyl)-1,2,4-oxadiazol-3-yl]pyridine]
4.87 | COc1ccc(CN=Nc2nc(O)c(CC(=O)O)s2)cc1OCc1ccc(Cl)cc1Cl [[2-({3-[(2,4-dichlorobenzyl)oxy]-4-methoxybenzylidene}hydrazono)-4-oxo-1,3-thiazolidin-5-yl]acetic acid]
4.14 | NS(=O)(=O)c1ccccc1 [sodium;phenylsulfonylazanide]
< 4.10 | C=c1c(O)c(O)c(=C2C(=O)C(=O)C(C)C(=O)C2=O)c(O)c1O (stereo unspecified) [(3E)-5-hydroxy-6-methyl-3-(2,3,5-trihydroxy-4-methyl-6-oxo-1-cyclohexa-2,4-dienylidene)cyclohex-5-ene-1,2,4-trione]
< 4.10 | Cc1c(CCC(=O)O)c(=O)oc2c(C)c(OCc3cc4c(cc3Cl)OCO4)ccc12 [3-[7-[(6-chloranyl-1,3-benzodioxol-5-yl)methoxy]-4,8-dimethyl-2-oxidanylidene-chromen-3-yl]propanoic acid]
< 4.10 | Cc1cc(C(=O)NN=Cc2ccc(-c3ccc([N+](=O)[O-])cc3Cl)o2)[nH]n1 [N-[[5-(2-chloro-4-nitrophenyl)furan-2-yl]methylideneamino]-5-methyl-1H-pyrazole-3-carboxamide]
4.38 | O=C1C(=O)N(CCCO)C(c2ccc(Br)cc2)C1C(=O)c1ccc(Br)cc1 (stereo unspecified) [(4E)-5-(4-bromophenyl)-4-[(4-bromophenyl)-oxidanyl-methylidene]-1-(3-oxidanylpropyl)pyrrolidine-2,3-dione]
4.92 | Cc1cc(C)c(NC(S)=NCC2CCN(C(C)c3ccccc3)C2)c(C)c1 (stereo unspecified) [1-[[1-(1-phenylethyl)-3-pyrrolidinyl]methyl]-3-(2,4,6-trimethylphenyl)thiourea]
< 4.10 | NC(=NOC(=O)c1cccc2ccccc12)c1cccc([N+](=O)[O-])c1 [N'-(1-naphthoyloxy)-3-nitrobenzenecarboximidamide]
< 4.10 | COc1cc(/C=C2/C(=O)NN(c3cccc(C)c3)C2=O)cc([N+](=O)[O-])c1O [4-(4-hydroxy-3-methoxy-5-nitrobenzylidene)-1-(3-methylphenyl)-3,5-pyrazolidinedione]
< 4.10 | COc1ccc(-c2ccc(NC(=O)c3ccc(Br)o3)cc2)nn1 [MLS001236653]
< 4.10 | Cc1ccc(S(=O)(=O)N2CCCCC2)cc1NC(=O)c1ccc(=O)[nH]c1
< 4.10 | S=C1N=C(C23CC4CC(CC(C4)C2)C3)CC(c2ccc3c(c2)OCO3)N1 (stereo unspecified)
< 4.10 | COCCN(C(=S)Nc1c(C)cc(C)cc1C)C(C)c1cccnc1 (stereo unspecified) [MLS000584539]
< 4.10 | Cn1cc(CC(=O)Nc2cccc(C#N)c2)c2ccccc21 [N-(3-cyanophenyl)-2-(1-methyl-1H-indol-3-yl)acetamide]

Same assay, conditions: inactive by the depositor's call

pIC50 | Structure (SMILES)
4.51 | CCCc1cc(=O)oc2cc(OCC(=O)Nc3ccc(S(N)(=O)=O)cc3)ccc12 [2-(2-oxo-4-propylchromen-7-yl)oxy-N-(4-sulfamoylphenyl)acetamide]
4.24 | COc1cccc(Nc2nn3c(=O)c4ccccc4nc3s2)c1
4.14 | O=C(NCCCn1ccnc1)C(Cc1ccccc1)N1C(=O)c2ccccc2C1=O (stereo unspecified) [MLS000040026]
4.44 | Cc1c(C)c2ccc(OCC(=O)Nc3ccc(S(N)(=O)=O)cc3)c(C)c2oc1=O [SMR000652408]
4.42 | Cc1sc2nc(CSC(C)C(=O)Nc3ccc(Cl)cn3)nc(O)c2c1C (stereo unspecified) [SMR001268769]
4.24 | Cc1nn(C)cc1C=NNC(=S)Nc1ccccc1 [1-[(E)-(1,3-dimethylpyrazol-4-yl)methylideneamino]-3-phenyl-thiourea]
4.46 | COc1cc(Cl)ccc1N=C(S)N(CCCN1CCOCC1)Cc1cn(C)c2ccccc12 [N'-(4-chloro-2-methoxyphenyl)-N-[(1-methyl-1H-indol-3-yl)methyl]-N-(3-morpholin-4-ylpropyl)thiourea]
4.66 | OCCN1CCN(C(=S)c2ccc(Cl)c(Cl)c2)CC1 [(3,4-dichlorophenyl)-[4-(2-hydroxyethyl)-1-piperazinyl]methanethione]
4.65 | Cc1ccc(NC(=O)c2ccc3nc(N4CCOCC4)sc3c2)c(Cl)c1 [SMR000624920]
4.58 | Cc1c(CC(=O)O)c(=O)oc2c(C)c(OCc3ccccc3Br)ccc12 [2-[7-[(2-bromophenyl)methoxy]-4,8-dimethyl-2-oxochromen-3-yl]acetic acid]
4.62 | O=C(N/N=C/c1ccc(Br)cc1)c1ccc(Br)o1 [5-bromanyl-N-[(E)-(4-bromophenyl)methylideneamino]furan-2-carboxamide]
4.60 | CC(C)(C)C(=O)Nc1ccc(C(=O)Nc2cccc(Oc3ccc(C(=O)O)c(C(=O)O)c3)c2)cc1 [MLS001181252]
4.67 | O=S(=O)(Nc1ccc(Cl)cc1)c1ccc(N2CCOCC2)c(NC(=S)NCCN2CCOCC2)c1
4.59 | CCN1CCN(C(=S)c2ccc(Cl)cc2)CC1 [MLS000594090]
4.62 | O=S(=O)(O)c1cc(O)c2cc(Nc3ccccc3)ccc2c1
4.19 | CCN1CCN(C(=S)c2ccc(Br)cc2)CC1 [SMR000198085]
4.11 | COc1cccc(-c2cc(C(=O)Nc3nc4ccccc4s3)c3ccccc3n2)c1 [N-(1,3-benzothiazol-2-yl)-2-(3-methoxyphenyl)-4-quinolinecarboxamide]
4.40 | N#CNc1nc(O)cc(=O)[nH]1 [MLS000737363]
4.12 | NS(=O)(=O)c1ccc(NC(=S)N2CCC(Cc3ccccc3)CC2)cc1 [MLS001196239]
4.38 | Cc1cc(C)c2nc(-c3ccccn3)cc(C(=O)Nc3ccc(S(=O)(=O)Nc4onc(C)c4C)cc3)c2c1 [MLS000862518]
4.59 | O=C(N/N=C/c1ccc(OC(=O)c2cccs2)cc1)c1cccc(F)c1 [MLS000576933]
4.49 | Cc1ccc(C(=S)N2CCN(Cc3ccccc3)CC2)s1 [(5-methyl-2-thiophenyl)-[4-(phenylmethyl)-1-piperazinyl]methanethione]
4.38 | CN1CCN(C(=S)c2ccc(Br)cc2)CC1 [1-[(4-bromophenyl)carbonothioyl]-4-methylpiperazine]
4.12 | Cc1ccc(-n2c(C)nc3oc4ccccc4c(=O)c3c2=O)cc1 [2-methyl-3-(4-methylphenyl)[1]benzopyrano[2,3-d]pyrimidine-4,5-dione]
